{
  "source": "patent US20250146022A1",
  "about": "“STABILISING THE HUMAN SPINDLE BY KIFC1/HSET” (MAX-PLANCK-GESELLSCHAFT ZUR FOERDERUNG DER WISSENSCHAFTEN …, priority 2021, published 2025)",
  "test_system": "human oocytes",
  "assay": "Live imaging of spindle assembly and chromosome segregation in human oocytes microinjected with KIFC1/HSET (mClover3-HSET)",
  "format": "cell-based",
  "experimental": "As shown in various Figures herein and specifically referred in Example 2, the bipolar meiotic spindle is assessed or detected by fluorescence microscopy or polarized light microscopy. In practice, the oocyte is not is typically not assessed by fluorescence microscopy, when the oocyte is used for in vitro fertilization at a later stage as this would require sacrificing the oocytes for analysis. The change in probability represents a characteristic of human oocytes when KIFC1/HSET is introduced into the human oocyte. […] Similarly, it is also expected that KIFC1/HSET stabilizes the mitotic spindle in human zygotes. The skilled person is aware of how to determine the duration of spindle pole instability and is provided with further guidance in Example 2 herein. Briefly, the duration of spindle pole instability refers to the duration of excessive spindle pole remodeling after early spindle bipolarization. In the case of human oocytes, the remodeling is largely the widening or fragmentation of spindle poles, which results in apolar or multipolar spindle. The start and end points are determined from the videos based on the first and last time points in which the spindle was not bipolar.\nAnaphase onset refers to the time point before chromosome separation was first observed, as defined in the inventors previous study (2). […] Thus, there was a difference of 30.6% relative to the starting percentage of 44%. In other words, the human oocytes in FIG. 8D into which KIFC1/HSET has been introduced have a 1.7 fold (75%/44%) higher probability of aligned chromosomes at anaphase onset in comparison to an oocyte without introduced KIFC1/HSET.\nIn general, lagging chromosomes during anaphase are known in the art and are a consequence of chromosomes or chromatids not properly separating from each other. […] Lagging chromosomes are therefore a common cause of aneuploidy. […] Specifically, 33.3% of oocytes without introduced KIFC1/HSET had no lagging: chromosomes, while 62.5% of oocytes with introduced KIFC1/HSET had no lagging chromosomes. Thus, there was a difference of 29.5% based on the starting percentage of 33%. In other words, the human oocytes in FIG. 8E into which KIFC1/HSET has been introduced have a 1.9 fold (62.5%/33.3%) higher probability of aligned chromosomes at anaphase onset in comparison to an oocyte without introduced KIFC1/HSET.\nTo confirm that the lack of KIFC1/HSET is a major contributor to spindle instability in human oocytes, the inventors introduced KIFC1/HSET into human oocytes in FIG. 8. To visualize the dynamics of microtubules and chromosomes using live cell imaging, human oocytes were stained with 5′-SiR-tubulin and SPY555-DNA, respectively. […] The inventors also quantified the frequency of misaligned chromosomes at anaphase onset (FIG. 8D) and lagging chromosomes (FIG. 8E) in human oocytes non-injected and injected with KIFC1/HSET. […] Together, the inventors infer that the introduction of KIFC1/HSET stabilized the meiotic spindle and reduced the risk of aneuploidy in human oocytes.\nThe use of unfertilized human oocytes in this study was approved by the UK's National Research Ethics Service under the REC reference 11/EE/0346 (IRAS Project ID 84952) and the Ärztekammer Niedersachsen (Ethics Committee of Lower Saxony) under the reference 15/2016. Oocytes were collected from patients who underwent ovarian stimulation for intracytoplasmic sperm injection (ICSI) as part of their assisted reproduction treatment at the Bourn Hall Clinic or Kinderwunschzentrum Göttingen or Fertility Center Berlin. Only oocytes that were immature at the time of ICSI and thus unsuitable for the procedure were used in this study. All patients gave informed consent for their surplus oocyte(s) to be used in this study. Oocytes were cultured as previously described (1). Briefly, within 3-5 h after retrieval from ovaries, oocytes were transferred into G-MOPS (Vitrolife) supplemented with 10% FBS under paraffin oil at 37° C. […]",
  "data": [
    {"substance": "KIFC1/HSET: Recombinant mClover3-tagged human kinesin-14 KIFC1/HSET protein (SEQ ID NO: 1), expressed in 293 cells, microinjected into human oocytes and zygotes", "values": [
      {"measurement": "fold higher probability of aligned chromosomes at anaphase onset vs oocyte without introduced KIFC1/HSET (FIG. 8E, lagging chromosomes)", "setting": "62.5%/33.3%, FIG. 8E", "value": 1.9, "unit": "fold"},
      {"measurement": "fold higher probability of aligned chromosomes at anaphase onset vs oocyte without introduced KIFC1/HSET", "setting": "75%/44%, FIG. 8D", "value": 1.7, "unit": "fold"},
      {"measurement": "difference in oocytes with no lagging chromosomes", "setting": "based on the starting percentage of 33%", "value": 29.5, "unit": "%"},
      {"measurement": "time of early spindle bipolarization after onset of microtubule nucleation", "setting": "injected human oocytes, non-injected 2.4 h, p=0.7197, FIG. 8B", "value": 2.65, "unit": "h"},
      {"measurement": "duration of spindle pole instability", "setting": "injected human oocytes, non-injected 10.3 h, p<0.0001, FIG. 8C", "value": 3.4, "unit": "h"},
      {"measurement": "proportion of human oocytes with no lagging chromosome", "setting": "oocytes with introduced KIFC1/HSET, without 33.3%, FIG. 8E", "value": 62.5, "unit": "%"},
      {"measurement": "proportion of human oocytes with aligned chromosomes at anaphase onset", "setting": "oocytes with introduced KIFC1/HSET, without 44.4%, FIG. 8D", "value": 75, "unit": "%"},
      {"measurement": "difference in oocytes with aligned chromosomes at anaphase onset", "setting": "relative to the starting percentage of 44%", "value": 30.6, "unit": "%"}
    ]}
  ]
}
